Measurements published in patent US8501241B1, “Treating cancer with a whole, leech saliva extract” (priority 2012, dated 2013).

Assays:
induced-diabetic rats = assay: Antihyperglycemic activity: fall in fasting blood glucose in alloxan-induced diabetic rats; format: in vivo, rat (Sprague Dawley)
[1] = Mortality, behaviour and acute toxicity signs in injected diabetic rats; format: in vivo, rat (Sprague Dawley); settings: insulin 20 units/kg b.w
[2] = tested on: Candida albicans ATCC10231; assay: Kirby-Bauer disc diffusion; format: cell-based; settings: reference antibiotic disc, 100 units/disc
Source text: (§1) Experimental procedures include the following steps: • 1.

[3] = tested on: Cryptococcus neoformans ATCC90112; assay: Kirby-Bauer disc diffusion; format: cell-based; settings: reference antibiotic disc, 100 units/disc
Source text: as §1

For “insulin: insulin from bovine pancreas (≧27 units/mg)”, the “fasting blood glucose (FBG)” value (induced-diabetic rats; after two hours of injection) was “sharp significant decrease (p<0.001)”, the “difference between normal rats and treated diabetic rats” value (induced-diabetic rats; at either dose) was “No significant difference” and the “fasting blood glucose (FBG)” value (induced-diabetic rats; insulin 10 units/kg b.w, after 8 hours of treatment) was “returned to the diabetic state”. For the same compound, the hypoglycemia and mortality [1] was “hypoglycemic condition in all rats leading to the death of one rat”.

In the case of `C[C@@H]1[C@H](O)[C@@H](C)/C=C/C=C/CC/C=C/C=C/C=C/C=C/C(O[C@H]2O[C@H](C)[C@@H](O)[C@H](N)[C@@H]2O)CC2O[C@](O)(CC(O)C(O)CCC(O)CC(O)CC(O)CC(=O)O[C@H]1C)CC(O)C2C(=O)O` (stereo partly drawn) [Nystatin, nystatin], the “Zone of inhibition (mm) C. albicans” value [2] is reported as 10 mm and the “Zone of inhibition (mm) C. neoformance” value [3] is reported as 9 mm.
